From publication PMC4522185 (ChemistryOpen, 2015)
pIC50: −log10 of the molar value. Values after ≈ are worked out from the molar mass of the structure shown.

Experiments:
[1] = biological target: human 20S proteasome (chymotrypsin-like activity, with PA28 activator) (Homo sapiens, UniProt P28074); experiment: fluorogenic suc-LLVY-AMC cleavage; assay type: biochemical
physchem [2] = conditions: ch3cn+pbs (1+1), pH 7.4
[3] = biological target: Mtb 20S open-gate proteasome (Mycobacterium tuberculosis, UniProt P9WHT9); experiment: biochemical
Mtb 20S open-gate proteasome, sequence (P9WHT9 whole entry): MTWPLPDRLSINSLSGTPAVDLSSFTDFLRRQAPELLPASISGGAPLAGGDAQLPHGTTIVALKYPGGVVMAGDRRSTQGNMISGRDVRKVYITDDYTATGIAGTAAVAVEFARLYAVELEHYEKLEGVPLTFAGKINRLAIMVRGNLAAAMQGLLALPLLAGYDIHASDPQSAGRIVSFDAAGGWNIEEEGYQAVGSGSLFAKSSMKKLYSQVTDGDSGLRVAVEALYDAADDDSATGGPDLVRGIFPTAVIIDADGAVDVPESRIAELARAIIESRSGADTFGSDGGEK
Mtb 20S open-gate proteasome, sequence (P9WHU1 whole entry partner): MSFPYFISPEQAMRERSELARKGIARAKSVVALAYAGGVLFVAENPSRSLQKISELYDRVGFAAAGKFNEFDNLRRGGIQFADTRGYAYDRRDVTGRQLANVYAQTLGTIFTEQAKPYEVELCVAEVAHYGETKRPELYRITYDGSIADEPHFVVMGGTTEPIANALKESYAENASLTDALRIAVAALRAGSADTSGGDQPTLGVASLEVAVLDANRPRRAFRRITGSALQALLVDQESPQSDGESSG

physchem [4] = conditions: pbs, pH 7.4, aqueous buffer

human 20S proteasome (chymotrypsin-like activity, with PA28 activator), sequence (P28074 60-263): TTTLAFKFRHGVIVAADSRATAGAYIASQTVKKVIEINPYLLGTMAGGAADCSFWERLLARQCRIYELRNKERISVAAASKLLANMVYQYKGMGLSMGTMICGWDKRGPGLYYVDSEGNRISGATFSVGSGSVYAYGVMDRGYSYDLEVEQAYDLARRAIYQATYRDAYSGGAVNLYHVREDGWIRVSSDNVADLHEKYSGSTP
human 20S proteasome (chymotrypsin-like activity, with PA28 activator), sequence (P25786 whole entry partner): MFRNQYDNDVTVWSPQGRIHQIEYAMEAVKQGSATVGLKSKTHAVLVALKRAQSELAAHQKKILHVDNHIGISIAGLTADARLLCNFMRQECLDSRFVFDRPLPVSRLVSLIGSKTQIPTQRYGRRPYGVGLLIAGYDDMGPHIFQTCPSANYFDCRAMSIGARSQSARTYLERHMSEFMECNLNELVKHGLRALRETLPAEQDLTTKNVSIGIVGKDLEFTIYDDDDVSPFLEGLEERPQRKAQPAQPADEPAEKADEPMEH

SMILES | pIC50 [1] | remaining at 24 h, 50 µM (physchem [2]) [%] | pIC50 [3] | solubility at 18 h (physchem [4]) [µM]
O=c1oc(-c2ccccc2)ns1 [compound 1, 5-Phenyl-1,3,4-oxathiazol-2-one] | 5.21 | – | – | –
O=c1oc(-c2cnccn2)ns1 [compound 2, 5-(Pyrazin-2-yl)-1,3,4-oxathiazol-2-one] | 5.35 | – | – | –
COc1cccc(-c2nsc(=O)o2)c1 [compound 3, 5-(3-Methoxyphenyl)-1,3,4-oxathiazol-2-one] | 4.82 | – | – | –
O=c1oc(-c2cccc(F)c2)ns1 [compound 4, 5-(3-Fluorophenyl)-1,3,4-oxathiazol-2-one] | 4.96 | – | – | –
O=c1oc(CCCl)ns1 [compound 5, 5-(2-Chloroethyl)-1,3,4-oxathiazol-2-one] | < 4.00 | – | – | –
O=c1oc(C2CC2)ns1 [compound 6, 5-Cyclopropyl-1,3,4-oxathiazol-2-one] | < 4.00 | – | – | –
CCCCCc1nsc(=O)o1 [compound 7, 5-Pentyl-1,3,4-oxathiazol-2-one] | < 4.00 | – | – | –
O=c1oc(CF)ns1 [compound 8, 5-(Fluoromethyl)-1,3,4-oxathiazol-2-one] | 5.85 | – | – | –
O=c1oc(Cc2ccccc2)ns1 [compound 9, 5-Benzyl-1,3,4-oxathiazol-2-one] | 5.72 | – | – | –
COc1cccc(Cc2nsc(=O)o2)c1 [compound 10, 5-(3-Methoxybenzyl)-1,3,4-oxathiazol-2-one] | < 4.00 | – | – | –
O=Cc1ccc(OCc2nsc(=O)o2)cc1 [compound 11, 4-((2-Oxo-1,3,4-oxathiazol-5-yl)methoxy)benzaldehyde] | < 4.00 | – | – | –
O=c1oc(Cc2cccc3ccccc23)ns1 [compound 12, 5-(Naphthalen-1-ylmethyl)-1,3,4-oxathiazol-2-one] | < 4.00 | – | – | –
O=c1oc(Cc2ccccc2C(F)(F)F)ns1 [compound 13, 5-(2-(Trifluoromethyl)benzyl)-1,3,4-oxathiazol-2-one] | 5.06 | – | – | –
O=c1oc(C(O)c2ccccc2)ns1 (stereo not shown) [compound 14, 5-(Hydroxy(phenyl)methyl)-1,3,4-oxathiazol-2-one] | 4.70 | – | – | –
O=c1oc(CCc2ccccc2)ns1 [compound 15, 5-Phenethyl-1,3,4-oxathiazol-2-one] | 5.17 | – | – | –
CO[C@H](c1ccccc1)c1nsc(=O)o1 [compound 16, (R)-5-(Methoxy(phenyl)methyl)-1,3,4-oxathiazol-2-one] | 5.24 | – | – | –
C=Cc1nsc(=O)o1 [compound 21, 5-Vinyl-1,3,4-oxathiazol-2-one] | 5.04 | – | – | –
O=c1oc(/C(=C/c2ccccc2)c2ccccc2)ns1 [compound 23, (E)-5-(1,2-Diphenylvinyl)-1,3,4-oxathiazol-2-one] | 4.85 | – | – | –
CC(C)c1ccc(/C=C/c2nsc(=O)o2)cc1 [compound 29, (E)-5-(4-Isopropylstyryl)-1,3,4-oxathiazol-2-one] | 4.84 | 99.8 | 5.77 | –
Cc1ccc(/C=C/c2nsc(=O)o2)cc1 [compound 30, (E)-5-(4-Methylstyryl)-1,3,4-oxathiazol-2-one] | < 4.00 | 96 | 6.00 | –

SMILES | pIC50 [1] | remaining at 24 h, 50 µM (physchem [2]) [%] | pIC50 [3] | solubility at 18 h (physchem [4]) [µM]
CCc1ccc(/C=C/c2nsc(=O)o2)cc1 [compound 31, (E)-5-(4-Ethylstyryl)-1,3,4-oxathiazol-2-one] | < 4.00 | 98.2 | 5.97 | –
O=c1oc(/C=C/c2ccc(OC(F)(F)F)cc2)ns1 [compound 32, (E)-5-(4-(Trifluoromethoxy)styryl)-1,3,4-oxathiazol-2-one] | < 4.00 | 94.8 | 6.11 | –
CCOC(=O)c1ccc(/C=C/c2nsc(=O)o2)cc1 [compound 33, (E)-Ethyl 4-(2-(2-oxo-1,3,4-oxathiazol-5-yl)vinyl)benzoate] | < 4.00 | 91.1 | 6.32 | –
O=C(c1ccccc1)c1ccc(/C=C/c2nsc(=O)o2)cc1 [compound 34, (E)-5-(4-Benzoylstyryl)-1,3,4-oxathiazol-2-one] | 4.06 | 96.1 | 5.92 | –
COC(=O)c1ccc(/C=C/c2nsc(=O)o2)cc1 [compound 35, (E)-Methyl 4-(2-(2-oxo-1,3,4-oxathiazol-5-yl)vinyl)benzoate] | 4.56 | 97.3 | 6.38 | –
O=c1oc(/C=C/c2ccc([N+](=O)[O-])cc2)ns1 [compound 36, (E)-5-(4-Nitrostyryl)-1,3,4-oxathiazol-2-one] | 4.59 | 96.9 | 5.85 | –
N#Cc1ccc(/C=C/c2nsc(=O)o2)cc1 [compound 37, (E)-4-(2-(2-Oxo-1,3,4-oxathiazol-5-yl)vinyl)benzonitrile] | 4.38 | 95.4 | 6.31 | –
O=Cc1ccc(/C=C/c2nsc(=O)o2)cc1 [compound 38, (E)-4-(2-(2-Oxo-1,3,4-oxathiazol-5-yl)vinyl)benzaldehyde] | 4.49 | 91.4 | 6.16 | –
O=c1oc(/C=C/c2ccc(Cl)cc2)ns1 [compound 39, (E)-5-(4-Chlorostyryl)-1,3,4-oxathiazol-2-one] | < 4.00 | 98.2 | 6.25 | –
O=c1oc(/C=C/c2cc(Cl)ccc2Cl)ns1 [compound 40, (E)-5-(2,5-Dichlorostyryl)-1,3,4-oxathiazol-2-one] | 4.30 | 98.5 | 6.11 | –
Cc1cccc(/C=C/c2nsc(=O)o2)c1 [compound 41, (E)-5-(3-Methylstyryl)-1,3,4-oxathiazol-2-one] | 4.41 | 98.1 | 5.80 | –
CCc1cccc(/C=C/c2nsc(=O)o2)c1 [compound 42, (E)-5-(3-Ethylstyryl)-1,3,4-oxathiazol-2-one] | 4.49 | 96.4 | 5.84 | –
O=c1oc(/C=C/c2cccc(OC(F)(F)F)c2)ns1 [compound 43, (E)-5-(3-(Trifluoromethoxy)styryl)-1,3,4-oxathiazol-2-one] | 4.40 | 96.2 | 5.74 | –
CCOC(=O)c1cccc(/C=C/c2nsc(=O)o2)c1 [compound 44, (E)-Ethyl 3-(2-(2-Oxo-1,3,4-oxathiazol-5-yl)vinyl)benzoate] | < 4.00 | 96 | 5.00 | –
Cc1ccccc1/C=C/c1nsc(=O)o1 [compound 45, (E)-5-(2-Methylstyryl)-1,3,4-oxathiazol-2-one] | < 4.00 | 94 | – | –
CCc1ccccc1/C=C/c1nsc(=O)o1 [compound 46, (E)-5-(2-Ethylstyryl)-1,3,4-oxathiazol-2-one] | < 4.00 | 98 | – | –
O=c1oc(/C=C/c2ccccc2OC(F)(F)F)ns1 [compound 47, (E)-5-(2-(Trifluoromethoxy)styryl)-1,3,4-oxathiazol-2-one] | < 4.00 | 95.7 | – | –
CCOC(=O)c1ccccc1/C=C/c1nsc(=O)o1 [compound 48, (E)-Ethyl 2-(2-(2-Oxo-1,3,4-oxathiazol-5-yl)vinyl)benzoate] | < 4.00 | 97.7 | – | –
O=c1oc(/C=C/c2ccccn2)ns1 [compound 54, (E)-5-(2-(Pyridin-2-yl)vinyl)-1,3,4-oxathiazol-2-one] | – | – | – | 64.6 (≈ 13.3 µg/mL)
O=c1oc(/C=C/c2cccnc2)ns1 [compound 55, (E)-5-(2-(Pyridin-3-yl)vinyl)-1,3,4-oxathiazol-2-one] | – | – | – | 70.6 (≈ 14.6 µg/mL)
